These results are taken from the OligoGym collection.

Several values for one entry are separate records, joined by “and”; a condition that tells them apart may be missing. Equal values may be shown once. After the bases stand the sugars from the 5' end (letter, count) and the backbone: PS all phosphorothioate, else s phosphorothioate and o phosphodiester by linkage. Methylation of C is not given here. e = 2'-O-(2-methoxyethyl) (MOE); k = constrained ethyl (cEt); d = 2'-deoxy (DNA)

In the first data set the target is IRF4. Conditions: ASO, MM.1R, 0.0625 µM.
Consider TTTCATATTTGGAGCC (sugars k3 d10 k3, PS), for which the target mRNA inhibition was -3% and 21%.

The same data set, now with this note: ASO, MM.1R, 0.25 µM.
Regarding TTTCATATTTGGAGCC (sugars k3 d10 k3, PS), the target mRNA inhibition is 10% and 18%.

Still in this data set, the particulars now being: ASO, MM.1R, 1 µM.
As to “TGTAGTATGAGAAACG (sugars kkddddddddddkeke, PS)”, the target mRNA inhibition was determined as 10%.
On the same count and under the same terms, next, “TGTGATAGCTGAGCTG (sugars kkdddddddddekeke, PS)”: 41%; “TGTGATAGCTGAGCTG (sugars kkdddddddddkdkdk, PS)”: 47%; “TGTGCTTGCCAAGCCT (sugars kddddddddddkekek, PS)”: -1% and 3%.
The same measure, in the same setting: the same measure for “TGTGCTTGCCAAGCCT (sugars kkdddddddddkdkdk, PS)”: 23% and 21%; for “TGTGTATTACTCTTAG (sugars kkdddddddddekeke, PS)”: 54% and 66%; for “TGTTACCGATGCTTCA (sugars kkdddddddddekeke, PS)”: 35% and 49%.
As to TTACCGCATTGCTAGA (sugars k3 d10 k3, PS), the target mRNA inhibition was 13% and 26%.
As for “TTATATACTGGTTGGT (sugars kddddddddddkekek, PS)”, the target mRNA inhibition is 22%.
Still for that read-out and setting: the same measure for “TTATATACTGGTTGGT (sugars kkdddddddddkdkdk, PS)”: 18%; for TTATGCCATGGACAAG (sugars k3 d10 k3, PS): 19%; for “TTATGTTAGCCAATTC (sugars kddddddddddkekek, PS)”: 2% and 6%.
Still for that read-out and setting: next, “TTATGTTAGCCAATTC (sugars kkddddddddddkeke, PS)”: 11% and 16%; “TTATGTTAGCCAATTC (sugars kkdddddddddekeke, PS)”: 9% and 8%.
Same read-out and setting: the same measure for “TTATGTTAGCCAATTC (sugars kkdddddddddkdkdk, PS)”: 17% and 26%; for “TTCATGTAAAGTCTGC (sugars kkddddddddddkeke, PS)”: 49% and 28%.
As for TTCGAGAGAAATATAC (sugars k3 d10 k3, PS), the target mRNA inhibition came out at 22%.
Turning to TTCTAGCTAACTTACA (sugars k3 d10 k3, PS), the target mRNA inhibition is -18%.
Same read-out and setting: the same measure for “TTGATGTGATAGCTGA (sugars k2 d9 e3 k2, PS)”: 17%.
The same measure, in the same setting: the same measure for “TTGATGTGATAGCTGA (sugars kkdddddddddkekek, PS)”: 24%.
On the same count and under the same terms, next, TTTAGTATCACCTCTA (sugars k3 d10 k3, PS): 30%; “TTTATGTTAGCCAATT (sugars kkdddddddddkdkdk, PS)”: 11% and 34%.
With “TTTATGTTAGCCAATT (sugars kkdddddddddkekek, PS)”, the target mRNA inhibition is 9% and 15%.
Same read-out and setting: the same measure for TTTCATATTTGGAGCC (sugars k3 d10 k3, PS): 25% and 45%; for TTTGAGACTTAACCCA (sugars k3 d10 k3, PS): 31%; for TTTGCTTTGGGCACCA (sugars k3 d10 k3, PS): 24%.

Still in this data set, the particulars now being: ASO, MM.1R, 4 µM.
Take TTTCATATTTGGAGCC (sugars k3 d10 k3, PS): the target mRNA inhibition was 45% and 60%.

Still in this data set, the particulars now being: ASO, SK-MEL-28, 4 µM.
Consider TGTAAGGTCTGAGAGC (sugars k3 d10 k3, PS), for which the target mRNA inhibition turned out to be 25%.
Same read-out and setting: next, TGTAATGTAGGGATAC (sugars k3 d10 k3, PS): 53%; TGTATACCAACGACAG (sugars k3 d10 k3, PS): 58%; TGTCACTATGCCTGAA (sugars k3 d10 k3, PS): 27%.
The same measure, in the same setting: the same measure for TGTGTCAAAGAGCTTG (sugars k4 d8 k4, PS): 26%.
Take TGTTAAGTCCCATCTG (sugars k3 d10 k3, PS): the target mRNA inhibition was determined as 25%.
Regarding TGTTACTTTCAAATCG (sugars k3 d10 k3, PS), the target mRNA inhibition is 48%.
On the same count and under the same terms, the same measure for TTAAAGAGCGCATTTC (sugars k3 d10 k3, PS): 41%; for TTAATTATGCAGAAGC (sugars k3 d10 k3, PS): 13%.
As to TTACACCCAGAAGTAC (sugars k3 d10 k3, PS), the target mRNA inhibition is 5%.
On the same count and under the same terms, next, TTACACTGGATCTGAA (sugars k3 d10 k3, PS): 38%.
Same read-out and setting: next, TTACATCCTAGAACAC (sugars k3 d10 k3, PS): 3%.
TTAGGAACGAAGAGCA (sugars k3 d10 k3, PS): the target mRNA inhibition was found to be 32%.
Same read-out and setting: next, TTATAACCGGTAGAGT (sugars k3 d10 k3, PS): 38%; TTATAGTAGGTAAGAT (sugars k3 d10 k3, PS): 2%.
On the same count and under the same terms, next, TTATATACTGGTTGGT (sugars k3 d10 k3, PS): 49%.
The same measure, in the same setting: the same measure for TTATATATGACGACTT (sugars k3 d10 k3, PS): 35%; for TTCAGCAGAAAGTGGG (sugars k3 d10 k3, PS): 48%; for TTCAGCCACGAGGCAC (sugars k3 d10 k3, PS): 5%.
As for TTCCAACAATAGCAAC (sugars k3 d10 k3, PS), the target mRNA inhibition came out at 46%.
TTCCACACTGGATATG (sugars k3 d10 k3, PS): the target mRNA inhibition came to 41%.
Same read-out and setting: the same measure for TTCCATAGAGCCAGAG (sugars k3 d10 k3, PS): 37%; for TTCCATAGATCAACAT (sugars k3 d10 k3, PS): 44%.
Same read-out and setting: the same measure for TTCCGTAGTCAGCTCC (sugars k3 d10 k3, PS): 68%; for TTCCTGTAACAGGCTA (sugars k3 d10 k3, PS): 63% and 77%; for TTCGAGGTGATTCTCG (sugars k3 d10 k3, PS): 5%.
On the same count and under the same terms, next, TTCTAATGGTGCTCCT (sugars k3 d10 k3, PS): 7%; TTCTAGGTAATCTGTA (sugars k3 d10 k3, PS): 38%.
For the sequence TTGAAAGACTAACTGG (sugars k3 d10 k3, PS), the target mRNA inhibition came out at 20%.
Still for that read-out and setting: the same measure for TTGAGGTTTTCCTAAA (sugars k3 d10 k3, PS): 29%; for TTGCAAGAGAACAGCC (sugars k3 d10 k3, PS): 39%; for TTGTCCTCTGGGTAGG (sugars k3 d10 k3, PS): 30%.
The same measure, in the same setting: next, TTGTCTGGCTAGCAGA (sugars k3 d10 k3, PS): 45%.
On the same count and under the same terms, the same measure for TTGTTAACAATGTATC (sugars k3 d10 k3, PS): 47%; for TTTAAGTCATGTGTCA (sugars k3 d10 k3, PS): 50%; for TTTACAGCATCTAAGG (sugars k3 d10 k3, PS): 34%.
As for TTTATAGTAGGTAAGA (sugars k3 d10 k3, PS), the target mRNA inhibition is 6%.
Same read-out and setting: the same measure for TTTATGCCCTCGCTCA (sugars k3 d10 k3, PS): 24%.
On the same count and under the same terms, the same measure for TTTATGCGAAGAATTT (sugars k3 d10 k3, PS): 33%; for TTTCACATGATAAGGC (sugars k3 d10 k3, PS): 43%.
TTTCATATTTGGAGCC (sugars k3 d10 k3, PS): the target mRNA inhibition worked out at 75%.

Another data set deals with MALAT1. The note with it: ASO, A431, 0.005 µM.
Turning to AAAAAGGCTCGATGGA (sugars k3 d10 k3, PS), the target mRNA inhibition amounted to 52%.
AAAACCCCCGGAACTT (sugars k3 d10 k3, PS): the target mRNA inhibition amounted to 9%.
Still for that read-out and setting: next, AAAAGATCGCCTTCAA (sugars k3 d10 k3, PS): 34%; AAAAGTGGTTGCCCGC (sugars k3 d10 k3, PS): 28%; AAAATGGCGGACTTTC (sugars k3 d10 k3, PS): 30%.
On the same count and under the same terms, the same measure for AAACAACATATTGCCG (sugars k3 d10 k3, PS): 20%; for AAACCCCCGGAACTTT (sugars k3 d10 k3, PS): 5%; for AAACGAAACATTGGCA (sugars k3 d10 k3, PS): 46%.
Consider AAACTAAGCTACTATA (sugars k3 d10 k3, PS), for which the target mRNA inhibition is -17%.
Still for that read-out and setting: the same measure for AAACTTATCTGCGGTT (sugars k3 d10 k3, PS): 19%; for AAAGAACTAGTGGTTC (sugars k3 d10 k3, PS): -4%; for AAAGAGTGTTCGCAGA (sugars k3 d10 k3, PS): 54%.
For the sequence AAAGCCCACCCTCTAA (sugars k3 d10 k3, PS), the target mRNA inhibition was -26%.
In the case of AAAGGTTACCATAAGT (sugars k3 d10 k3, PS), the target mRNA inhibition came out at 5%.
Same read-out and setting: the same measure for AAAGTAGTTCTTCGGT (sugars k3 d10 k3, PS): 17%.
The same measure, in the same setting: next, AAATACTTCATTACCC (sugars k3 d10 k3, PS): 24%; AAATTTCCTTAGTTGG (sugars k3 d10 k3, PS): 54%; AACACCCGGAAATCGG (sugars k3 d10 k3, PS): 26%.
Still for that read-out and setting: the same measure for AACATCTGATTCTAAC (sugars k3 d10 k3, PS): 27%; for AACCAACTTCCCCTTC (sugars k3 d10 k3, PS): 16%.
As for AACCACACACTACCAT (sugars k3 d10 k3, PS), the target mRNA inhibition is -7%.
In the case of AACCACTCGCTTTCCC (sugars k3 d10 k3, PS), the target mRNA inhibition was determined as 41%.
On to AACCCCCGGAACTTTT (sugars k3 d10 k3, PS), for which the target mRNA inhibition was determined as 1%.
Same read-out and setting: the same measure for AACCGGAGCAGGAAGA (sugars k3 d10 k3, PS): -16%; for AACCTACAACACCCGG (sugars k3 d10 k3, PS): 34%.
Still for that read-out and setting: next, AACTAAGCTACTATAT (sugars k3 d10 k3, PS): -2%; AACTGATCTGACTTTG (sugars k3 d10 k3, PS): 34%.
Same read-out and setting: the same measure for AACTGGAAGCTCCTTC (sugars k3 d10 k3, PS): 17%.
